According to patent US12502398B2, “Combination therapy for treating cancer” (AstraZeneca AB, priority 2019, dated 2025):

Legend:
[1] = tested on: Mouse MC38 colorectal cancer cells expressing OVA antigen; experiment: MC38-OVA syngeneic tumor model, tumor volume; type: in vivo; details: COMPOUND 12 30 mg/kg orally twice per day, Anti-PDL1 10 mg/kg ip twice per week
Experimental: (§1) Mouse MC38 colorectal cancer cells expressing OVA antigen (5×10^5 cells/mouse), were subcutaneously implanted in the right flank of 6 to 8 weeks old female C57BL/6 mice. On day 6 post transplant, groups of mice were treated with vehicle (water), 30 mg/kg COMPOUND 12, 10 mg/kg Anti-PDL1 (MEDI4736), or the combination. COMPOUND 12 was formulated in water and dosed orally twice per day. MEDI4736 was formulated in 1×PBS and dosed intraperitoneally twice per week for 2 weeks. Tumor length and width was measured by caliper and tumor volume was calculated using the formula (length×width^2)*π/6 then reported as tumor volume as calculated.

[2] = tested on: Mouse CT.26 WT colorectal cancer cells; experiment: CT.26 WT syngeneic tumor model, tumor volume; type: in vivo; details: COMPOUND 12 30 mg/kg orally twice per day, Anti-PDL1 10 mg/kg ip twice per week
Experimental: as §1, with “CT.26 WT” for “MC38”, “cells” for “cells expressing OVA antigen”, “Balb/C” for “C57BL/6”, “implant,” for “transplant,”, “combination. Additional groups were treated with 10 mg/kg Anti-NKG2A (monalizumab), in combination with either COMPOUND 12 or MEDI4736, or a triplicate of COMPOUND 12, monalizumab and MEDI4736.” for “combination.”, “weeks. Monalizumab was formulated in 1×PBS and dosed intravenously twice per week for 1.5 weeks (3 doses).” for “weeks.”

[3] = tested on: Mouse Lewis lung (LL/2) carcinoma cells; experiment: LL/2 syngeneic tumor model with TLR3 agonist, tumor volume; type: in vivo; details: Poly I:C 7.5 mg/kg ip 3x/week; for efficacy / monotherapy activity (in words): COMPOUND 12 30 mg/kg po BID
Experimental: Mouse Lewis lung (LL/2) carcinoma cells (1×10^6 cells/mouse), were subcutaneously implanted in the right flank of 6 to 8 weeks old C57BL/6 mice. On day 6 post implant, groups of mice were treated with vehicle (water), 30 mg/kg COMPOUND 12, 7.5 mg/kg TLR3 agonist (Poly I:C), or the combination. COMPOUND 12 was formulated in water and dosed orally twice per day. Poly I:C was formulated in water and dosed intraperitoneally 3×/week. Tumor length and width was measured by caliper and tumor volume was calculated using the formula (length×width^2)*π/6 then reported as tumor volume as calculated.

MC38-OVA model = experiment: In vivo PD study of immune cell changes in MC38-OVA model (flow cytometry); set-up: species or system mouse; details: draining lymph node
Experimental: For monitoring immune cell changes tumors were harvested either four, ten or fourteen days post treatment. Tumors were excised and mechanically minced. Tumors were then incubated with tumor dissociation enzyme mix (Miltenyi Biotec) at 37° C. for 40 min in gentle MACS instrument (Miltenyi biotec). Single cell suspension were made and stained for a variety of immune cell markers to determine the immune cell changes post treatment using multicolor flow cytometry. Furthermore, the functional response of CD8+ cytotoxic T cells was evaluated by ex vivo restimulation with phorbol 12-myristate-13-acetate (PMA) and ionomycin prior to analysis.

[4] = tested on: LL/2 murine lung carcinoma cells; experiment: LL/2 syngeneic lung tumor model with radio therapy; type: in vivo, mouse; details: COMPOUND 12 30 mg/kg twice daily, radiation 5 gray on days 6 and 9 after implant
Experimental: Six-eight week old BL/6 mice (Charles River Labs) were implanted with 1e6 LL/2 murine lung carcinoma cells subcutaneously on the right flank. At 6 days post implant, animals were randomized by mean cage tumor volume into four groups (n=12/ group). Group 1 was anesthetized for mock irradiation on days 6 and 9, and dosed with vehicle (water) PO, BID starting on day 6. Group 2 was anesthetized and given 5 Gy of radiation targeted to the tumor on days 6 and 9. Group 3 was administered AZ8400 at 30 mg/kg PO bid starting on Day 6, and Group 4 was administered AZ8400 at 30 mg/kg starting on Day 6, and anesthetized and irradiated on days 6 and 9. Body weight and tumor volume were measured twice weekly until tumors were >1500 mm3, at which point mice were humanely sacrificed

With CC(C)[C@H](N)C(=O)N[C@H]1CN[C@@](CCCCB(O)O)(C(=O)O)C1 [COMPOUND 12, (2R,4R)-4-((S)-2-amino-3-methylbutanamido)-2-(4-boronobutyl)pyrrolidine-2-carboxylic acid] the “efficacy (in words)” value [1] was “modestly efficacious”, the “efficacy (in words)” value [2] was “modestly efficacious” and the “efficacy / monotherapy activity (in words)” value [3] was “modestly efficacious”. The “IFNg producing CD8+ T cells in the periphery (draining LN)” value (MC38-OVA model) was “increase”, the “TNFa producing CD8+ T cells in the periphery (draining LN)” value (MC38-OVA model) was “increase” and the tumor growth inhibition [4] was “about 30%”.
For “Anti-PDL1: MEDI4736, also known as durvalumab, an anti-PD-L1 antibody [reference compound]”, the “efficacy (in words)” value [1] was “modest efficacy” and the “efficacy (in words)” value [2] was “modest efficacy”.
“polyinosinic:polycytidylic acid [Poly I:C]” was tested, and the “efficacy / monotherapy activity (in words)” value [3] was “moderate monotherapy activity” and the “TGI on day 16” value ([3]; day 16) was 76%.
